± gives the standard deviation.
Legend:
[1] = chemical recovery from spiked human plasma; higher = better extraction; conditions: pooled human plasma
[2] = chemical recovery into PDMS from spiked human plasma; higher = better extraction; conditions: pooled human plasma, extraction method: PES with PDMS
[3] = chemical recovery by SPE of plasma after PDMS sampling; higher = better extraction; conditions: pooled human plasma, extraction method: HLB SPE of plasma after PES
[4] = extraction method: PES+SPE (3 d PDMS equilibration then HLB SPE)
[5] = extraction method: SPE only (HLB 96-well)
[6] = extraction method: SPE only (HLB 96-well), PES comparison experiment
[7] = extraction method: solvent precipitation (ACN + hexane)
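Throughout, for chemical recovery by SPE of plasma after PDMS sampling: over 400 spiked chemicals quantified by LC-HRMS or GC-HRMS via internal standard calibration, recovery relative to spike mix added to unspiked plasma extract to correct matrix effects.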

| SMILES | chemical recovery [1, 4] | chemical recovery [1, 5] | chemical recovery [1, 6] | chemical recovery [1, 7] | chemical recovery into PDMS ([2]; equilibration time (d): 3) | chemical recovery by SPE of plasma ([3]; equilibration time (d): 1) | chemical recovery by SPE of plasma ([3]; equilibration time (d): 3) | chemical recovery by SPE of plasma ([3]; equilibration time (d): 6) | chemical recovery into PDMS ([2]; equilibration time (d): 1) | chemical recovery into PDMS ([2]; equilibration time (d): 6) |
| --- | --- | --- | --- | --- | --- | --- | --- | --- | --- | --- |
| N#Cc1cc(Br)c(O)c(Br)c1 [Bromoxynil] | 51 ± 4.9% | 43.9 ± 2.5% | 59.5 ± 6.2% | 68.2 ± 6.9% | 0.00783 ± 0.014% | 58.5 ± 9.5% | 62.9 ± 3.1% | 58.6 ± 2.6% | – | – |
| CCCOP(=O)(OCCC)OCCC [Tripropyl phosphate] | – | 35 ± 7.1% | 26.4 ± 7.2% | – | 35.3 ± 6.6% | 1.52 ± 1% | 1.74 ± 0.42% | 1.1 ± 0.16% | 29.8 ± 6.3% | 33.8 ± 2.4% |
| O=P(OC(CCl)CCl)(OC(CCl)CCl)OC(CCl)CCl [TDCPP] | – | 46.5 ± 0.97% | 50.5 ± 5.6% | – | 37.4 ± 4.4% | 4.16 ± 3.7% | 4.02 ± 4.5% | 2.14 ± 3.7% | 35.2 ± 3% | 35.8 ± 3% |
| C1=Cc2ccccc2Nc2ccccc21 [Iminostilbene] | 10.8 ± 4.1% | 44.1 ± 7% | 28.4 ± 4.4% | 73.2 ± 4.5% | 2.02 ± 2.1% | 3.69 ± 2.4% | 4 ± 1.1% | 2.5 ± 1.3% | 2.55 ± 1.2% | 1.36 ± 0.63% |
| CN(C)C(=O)Nc1ccc(Oc2ccc(Cl)cc2)cc1 [Chloroxuron] | – | 36.4 ± 1.9% | 49.8 ± 7.3% | – | 43.6 ± 2.7% | 11 ± 2.2% | 7.37 ± 0.66% | 4.53 ± 0.44% | 37.3 ± 1.7% | 42.8 ± 0.94% |
| CN(C)C(=O)Nc1ccc(Cl)c(Cl)c1 [Diuron] | 56.2 ± 5% | 48.9 ± 3.2% | 55.9 ± 7.4% | 74.6 ± 2.9% | 36.3 ± 1.6% | 8.44 ± 0.83% | 7.52 ± 0.91% | 4.83 ± 0.33% | 32.6 ± 1.8% | 37 ± 2% |
| O=C(O)c1ccc(Cl)cc1Cl [2,4-Dichlorobenzoic acid] | – | 47.3 ± 5.1% | 57 ± 6.3% | 67 ± 4.5% | 0.296 ± 0.12% | 47.5 ± 9.1% | 46.9 ± 8.3% | 47 ± 2.5% | 0.268 ± 0.04% | 0.344 ± 0.065% |
| C[Si](Cn1cncn1)(c1ccc(F)cc1)c1ccc(F)cc1 [Flusilazole] | 45.1 ± 4.8% | 39.4 ± 2.9% | 48 ± 7.1% | 70.1 ± 5.4% | 45.7 ± 3.8% | 0.32 ± 0.12% | 0.383 ± 0.15% | 0.136 ± 0.0093% | 41.3 ± 2.2% | 43.1 ± 5.8% |
| CN1CCN(C2=Nc3cc(Cl)ccc3Nc3ccccc32)CC1 [Clozapine] | 0.74 ± 0.14% | 39.1 ± 3.5% | 27.7 ± 11% | 68.3 ± 3.6% | – | 1.19 ± 0.08% | 1.11 ± 0.26% | 0.544 ± 0.065% | 0.000645 ± 0.0011% | – |
| ClC1=C(Cl)C2(Cl)C3C4C=CC(C4)C3C1(Cl)C2(Cl)Cl (configuration not stated) [Aldrin] | – | 1.53 ± 0.48% | 18.4 ± 4% | – | 90.4 ± 12% | 1.3 ± 0.86% | 1.34 ± 0.14% | 1.4 ± 0.28% | 84.1 ± 2.4% | 99.8 ± 12% |
| CS(=O)(=O)c1ccc(C(=O)C2C(=O)CCCC2=O)c(Cl)c1 [Sulcotrione] | 57 ± 5.9% | 47.6 ± 3.3% | 51.3 ± 2.9% | 72.8 ± 3.6% | – | 53.9 ± 7% | 59.9 ± 2.5% | 54.5 ± 2% | – | 0.00153 ± 0.0027% |
| O=S(=O)(c1ccccc1)c1ccccc1 [Diphenylsulfone] | – | 0.293 ± 0.035% | 15.5 ± 1.1% | 16.4 ± 3.6% | – | 5.48 ± 3.7% | 9.14 ± 0.92% | 7.53 ± 2.3% | 56.9 ± 12% | – |

From the supplement of paper PMC10702517
